Source: patent US20240024488A1, “COMPOUNDS AND USES THEREOF” (Foghorn Therapeutics Inc., priority 2020, published 2024)

Experiments:
HiBit-BRM fusion protein = molecular target: T1, HiBit-BRM fusion protein (Homo sapiens, UniProt P51531); test: HiBiT-BRM cell-based degradation assay (Nano-Glo HiBiT Lytic Detection, 24 h); details: HeLa cell line expressing HiBiT-BRM; for DC50: read-out: BRM HiBit Degradation IC50
T1 construct: expressed in transfected cells
Method: (§1) Procedure: A stable HeLa cell line expressing HiBiT-BRM was generated. On day 0, 5000 cells were seeded in 40 μL of media into each well of 384-well cell culture plates. On day 1, cells were treated with 120 nL DMSO or 120 nL of 3-fold serially DMSO-diluted compounds (10 points in duplicate with 30 μM as final top dose). Subsequently plates were incubated for 24 h in a standard tissue culture incubator and equilibrated at room temperature for 15 minutes. Nano-Glo HiBiT Lytic Detection System (Promega N3050) reagent was freshly prepared and 20 ul was added to each well. Upon addition of this LgBit-containing reagent, the HiBiT and LgBiT proteins associate to form the luminescent NanoBiT luciferase. The plates were shaken for 10 minutes at room temperature and the bioluminescence read using an EnVision plate reader (PerkinElmer).
(§2) The degradation % was calculated using the following formula: % degradation=100%−100%×(LumSample−LumLC)/(LumHC−LumLC). DMSO treated cells are employed as High Control (HC) and 2 μM of a known BRM/BRG1 degrader standard treated cells are employed as Low Control (LC).

[1] = molecular target: T2, HiBit-BRG1 fusion protein (Homo sapiens, UniProt P51532); test: HiBiT-BRG1 cell-based degradation assay (Nano-Glo HiBiT Lytic Detection, 24 h); details: HeLa cell line expressing HiBit-BRG1 and LgBit; for Dmax: read-out: BRG1 HiBit Degradation Maximum (%); for DC50: read-out: BRMG1 HiBit Degradation IC50
T2 construct: expressed in transfected cells
Method: as §1, with “On day 1, cells were treated with 120 nL DMSO or 120 nL of 3-fold serially DMSO-diluted compounds (10 points in duplicate with 30 μM as final top dose).” left out
For measurement of BRG1 degradation, a stable HeLa cell line expressing HiBit-BRG1 and LgBit was generated. The same protocol as above was then followed.
as §2

T1 sequence (P51531 whole entry, the tested form may be a part): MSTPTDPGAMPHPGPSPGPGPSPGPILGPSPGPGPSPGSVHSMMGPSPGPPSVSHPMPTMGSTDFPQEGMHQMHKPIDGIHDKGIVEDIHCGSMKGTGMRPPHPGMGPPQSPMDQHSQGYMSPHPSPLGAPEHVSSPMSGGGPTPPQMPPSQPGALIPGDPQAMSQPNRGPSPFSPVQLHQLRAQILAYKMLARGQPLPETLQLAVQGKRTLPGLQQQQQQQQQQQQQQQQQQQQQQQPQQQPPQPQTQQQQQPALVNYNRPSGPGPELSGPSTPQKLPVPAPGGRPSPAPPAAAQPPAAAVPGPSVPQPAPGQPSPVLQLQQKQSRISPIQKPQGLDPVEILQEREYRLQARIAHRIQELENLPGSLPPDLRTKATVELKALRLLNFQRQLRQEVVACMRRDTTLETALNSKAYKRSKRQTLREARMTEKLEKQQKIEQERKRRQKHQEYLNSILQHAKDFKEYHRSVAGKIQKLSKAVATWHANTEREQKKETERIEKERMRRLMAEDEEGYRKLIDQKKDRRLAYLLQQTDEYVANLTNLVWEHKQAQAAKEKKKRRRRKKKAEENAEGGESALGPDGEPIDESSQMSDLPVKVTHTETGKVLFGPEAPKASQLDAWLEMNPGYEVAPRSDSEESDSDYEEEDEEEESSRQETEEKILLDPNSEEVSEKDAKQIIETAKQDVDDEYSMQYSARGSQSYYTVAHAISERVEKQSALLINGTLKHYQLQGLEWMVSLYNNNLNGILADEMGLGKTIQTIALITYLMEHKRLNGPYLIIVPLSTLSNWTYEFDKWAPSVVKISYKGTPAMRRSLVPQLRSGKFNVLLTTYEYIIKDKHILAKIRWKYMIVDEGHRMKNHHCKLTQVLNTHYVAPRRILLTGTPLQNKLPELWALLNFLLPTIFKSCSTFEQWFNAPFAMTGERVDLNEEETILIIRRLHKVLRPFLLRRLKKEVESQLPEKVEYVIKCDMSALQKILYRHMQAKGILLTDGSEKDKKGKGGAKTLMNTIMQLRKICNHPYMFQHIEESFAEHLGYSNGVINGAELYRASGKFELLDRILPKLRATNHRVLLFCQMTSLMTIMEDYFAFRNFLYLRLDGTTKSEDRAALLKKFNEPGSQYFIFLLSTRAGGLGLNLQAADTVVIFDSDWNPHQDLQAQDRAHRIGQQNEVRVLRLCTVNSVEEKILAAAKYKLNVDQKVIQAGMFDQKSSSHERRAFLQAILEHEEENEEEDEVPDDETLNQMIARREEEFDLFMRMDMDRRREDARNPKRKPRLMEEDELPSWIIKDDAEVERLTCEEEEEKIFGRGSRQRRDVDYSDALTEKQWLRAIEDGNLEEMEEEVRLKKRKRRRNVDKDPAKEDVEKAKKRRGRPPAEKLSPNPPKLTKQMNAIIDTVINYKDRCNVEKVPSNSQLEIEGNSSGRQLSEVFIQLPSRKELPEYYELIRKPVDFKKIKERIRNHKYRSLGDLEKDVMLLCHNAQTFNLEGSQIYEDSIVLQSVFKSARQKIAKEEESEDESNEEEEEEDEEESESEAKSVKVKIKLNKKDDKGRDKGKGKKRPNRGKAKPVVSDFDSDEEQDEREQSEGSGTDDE
T2 sequence (P51532 whole entry, the tested form may be a part): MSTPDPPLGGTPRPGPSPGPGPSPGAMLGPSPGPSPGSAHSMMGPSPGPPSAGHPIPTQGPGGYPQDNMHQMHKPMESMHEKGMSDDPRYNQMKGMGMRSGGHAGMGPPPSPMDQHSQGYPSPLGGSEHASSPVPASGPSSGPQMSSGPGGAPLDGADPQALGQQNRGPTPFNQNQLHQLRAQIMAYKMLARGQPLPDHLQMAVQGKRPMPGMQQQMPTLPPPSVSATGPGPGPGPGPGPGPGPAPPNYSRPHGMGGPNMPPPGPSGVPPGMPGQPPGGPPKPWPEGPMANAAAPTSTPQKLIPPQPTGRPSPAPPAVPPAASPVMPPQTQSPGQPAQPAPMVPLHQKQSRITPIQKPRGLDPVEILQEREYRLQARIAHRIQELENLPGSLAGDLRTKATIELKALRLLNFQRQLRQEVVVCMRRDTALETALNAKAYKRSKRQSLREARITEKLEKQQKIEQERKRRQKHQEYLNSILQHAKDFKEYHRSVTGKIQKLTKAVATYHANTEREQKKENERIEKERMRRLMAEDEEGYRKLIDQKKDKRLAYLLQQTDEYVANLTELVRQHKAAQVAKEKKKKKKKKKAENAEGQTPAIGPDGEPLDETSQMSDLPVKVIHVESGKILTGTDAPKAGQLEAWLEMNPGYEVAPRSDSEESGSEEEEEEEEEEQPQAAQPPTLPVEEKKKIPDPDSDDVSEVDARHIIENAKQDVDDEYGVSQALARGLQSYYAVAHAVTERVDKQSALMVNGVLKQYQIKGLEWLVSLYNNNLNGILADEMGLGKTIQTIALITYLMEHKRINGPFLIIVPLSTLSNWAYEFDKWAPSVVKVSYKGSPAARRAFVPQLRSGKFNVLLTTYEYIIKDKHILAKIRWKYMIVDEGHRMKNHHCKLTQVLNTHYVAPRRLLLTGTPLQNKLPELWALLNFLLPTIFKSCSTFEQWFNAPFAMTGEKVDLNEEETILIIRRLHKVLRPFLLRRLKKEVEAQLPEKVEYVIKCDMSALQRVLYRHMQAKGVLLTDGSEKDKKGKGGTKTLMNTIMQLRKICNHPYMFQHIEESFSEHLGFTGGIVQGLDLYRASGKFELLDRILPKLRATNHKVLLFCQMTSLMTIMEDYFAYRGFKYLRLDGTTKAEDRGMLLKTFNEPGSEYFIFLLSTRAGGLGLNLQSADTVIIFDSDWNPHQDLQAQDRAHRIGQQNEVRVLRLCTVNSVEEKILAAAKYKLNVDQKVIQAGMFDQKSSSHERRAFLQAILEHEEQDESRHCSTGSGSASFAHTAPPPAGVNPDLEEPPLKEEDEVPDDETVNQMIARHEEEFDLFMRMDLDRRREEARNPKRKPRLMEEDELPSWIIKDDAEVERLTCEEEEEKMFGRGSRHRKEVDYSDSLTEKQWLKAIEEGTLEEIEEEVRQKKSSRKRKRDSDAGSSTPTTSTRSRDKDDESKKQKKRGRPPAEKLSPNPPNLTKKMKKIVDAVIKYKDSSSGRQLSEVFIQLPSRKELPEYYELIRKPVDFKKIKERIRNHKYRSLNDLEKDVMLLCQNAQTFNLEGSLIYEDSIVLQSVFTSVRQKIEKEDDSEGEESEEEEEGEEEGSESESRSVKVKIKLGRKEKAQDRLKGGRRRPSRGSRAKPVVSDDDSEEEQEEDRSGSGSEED

Row | Structure (SMILES) | BRM HiBit Degradation Maximum (%) (HiBit-BRM fusion protein) | Dmax [1] [%] | DC50 (HiBit-BRM fusion protein) [nM] | DC50 [1] [nM]
1 | Cc1ncsc1-c1ccc(CNC(=O)[C@@H]2C[C@@H](O)CN2C(=O)[C@@H](NC(=O)CCCCCNCCC(=O)N2CC(c3cc4cc(-c5ccccc5O)nnc4[nH]3)C2)C(C)(C)C)cc1 (racemic) [Compound 55, (2S,4R)-4-hydroxy-1-((S)-2-(6-((3-(3-(3-(2-hydroxyphenyl)-7H-pyrrolo[2,3-c]pyridazin-6-yl)azetidin-1-yl)-3-oxopropyl)amino)hexanamido)-3,3-dimethylbutanoyl)-N-(4-(4-methylthiazol-5-yl)benzyl)pyrrolidine-2-carboxamide] | C (“C” indicates maximum degradation < 50%) | < 50 |  | 
2 | Cc1ncsc1-c1ccc(CNC(=O)[C@@H]2C[C@@H](O)CN2C(=O)[C@@H](NC(=O)CCCCCCCNCCC(=O)N2CC(c3c[nH]c4nnc(-c5ccccc5O)cc34)C2)C(C)(C)C)cc1 (racemic) [Compound 56, (2S,4R)-4-hydroxy-1-((S)-2-(8-((3-(3-(3-(2-hydroxyphenyl)-7H-pyrrolo[2,3-c]pyridazin-5-yl)azetidin-1-yl)-3-oxopropyl)amino)octanamido)-3,3-dimethylbutanoyl)-N-(4-(4-methylthiazol-5-yl)benzyl)pyrrolidine-2-carboxamide] | B (“B” indicates maximum degradation ≥ 50%) | < 50 | > 1000 | 
3 | Cc1ncsc1-c1ccc(CNC(=O)[C@@H]2C[C@@H](O)CN2C(=O)[C@@H](NC(=O)CCCCCNCCC(=O)N2CC(c3c[nH]c4nnc(-c5ccccc5O)cc34)C2)C(C)(C)C)cc1 (racemic) [Compound 57, (2S,4R)-4-hydroxy-1-((S)-2-(6-((3-(3-(3-(2-hydroxyphenyl)-7H-pyrrolo[2,3-c]pyridazin-5-yl)azetidin-1-yl)-3-oxopropyl)amino)hexanamido)-3,3-dimethylbutanoyl)-N-(4-(4-methylthiazol-5-yl)benzyl)pyrrolidine-2-carboxamide] | C (“C” indicates maximum degradation < 50%) | < 50 |  | 
4 | Cc1ncsc1-c1ccc([C@H](C)NC(=O)[C@@H]2C[C@@H](O)CN2C(=O)[C@@H](c2cc(OCCN3CCN(CCN4CC(c5cc6cc(-c7ccccc7O)nnc6[nH]5)C4)CC3)no2)C(C)C)cc1 (racemic) [Compound 58, (2S,4R)-4-hydroxy-1-((R)-2-(3-(2-(4-(2-(3-(3-(2-hydroxyphenyl)-7H-pyrrolo[2,3-c]pyridazin-6-yl)azetidin-1-yl)ethyl)piperazin-1-yl)ethoxy)isoxazol-5-yl)-3-methylbutanoyl)-N-((S)-1-(4-(4-methylthiazol-5-yl)phenyl)ethyl)pyrrolidine-2-carboxamide] | A (“A” indicates maximum degradation ≥ 75%) | > 75 | > 100 | > 100
5 | Cc1ncsc1-c1ccc([C@H](C)NC(=O)[C@@H]2C[C@@H](O)CN2C(=O)[C@@H](c2cc(OCCN(C)CCN3CC(c4cc5cc(-c6ccccc6O)nnc5[nH]4)C3)no2)C(C)C)cc1 (racemic) [Compound 59, (2S,4R)-4-hydroxy-1-((R)-2-(3-(2-((2-(3-(3-(2-hydroxyphenyl)-7H-pyrrolo[2,3-c]pyridazin-6-yl)azetidin-1-yl)ethyl)(methyl)amino)ethoxy)isoxazol-5-yl)-3-methylbutanoyl)-N-((S)-1-(4-(4-methylthiazol-5-yl)phenyl)ethyl)pyrrolidine-2-carboxamide] | B (“B” indicates maximum degradation ≥ 50%) | < 50 | > 100 | 
6 | Cc1ncsc1-c1ccc(CNC(=O)[C@@H]2C[C@@H](O)CN2C(=O)[C@@H](NC(=O)CCCN2CC(c3cc4cc(-c5ccccc5O)nnc4[nH]3)C2)C(C)(C)C)cc1 (racemic) [Compound 60, (2S,4R)-4-hydroxy-1-((S)-2-(4-(3-(3-(2-hydroxyphenyl)-7H-pyrrolo[2,3-c]pyridazin-6-yl)azetidin-1-yl)butanamido)-3,3-dimethylbutanoyl)-N-(4-(4-methylthiazol-5-yl)benzyl)pyrrolidine-2-carboxamide] | C (“C” indicates maximum degradation < 50%) | < 50 |  | 
7 | Cc1ncsc1-c1ccc(CNC(=O)[C@@H]2C[C@@H](O)CN2C(=O)[C@@H](NC(=O)CN2CC(c3cc4cc(-c5ccccc5O)nnc4[nH]3)C2)C(C)(C)C)cc1 (racemic) [Compound 61, (2S,4R)-4-hydroxy-1-((S)-2-(2-(3-(3-(2-hydroxyphenyl)-7H-pyrrolo[2,3-c]pyridazin-6-yl)azetidin-1-yl)acetamido)-3,3-dimethylbutanoyl)-N-(4-(4-methylthiazol-5-yl)benzyl)pyrrolidine-2-carboxamide] | A (“A” indicates maximum degradation ≥ 75%) | > 75 | > 1000 | > 1000
8 | Cc1ncsc1-c1ccc(CNC(=O)[C@@H]2C[C@@H](O)CN2C(=O)[C@@H](NC(=O)C2(F)CC2)C(C)(C)C)c(OCCN2CC(c3cc4cc(-c5ccccc5O)nnc4[nH]3)C2)c1 (racemic) [Compound 63, (2S,4R)-1-((S)-2-(1-fluorocyclopropane-1-carboxamido)-3,3-dimethylbutanoyl)-4-hydroxy-N-(2-(2-(3-(3-(2-hydroxyphenyl)-7H-pyrrolo[2,3-c]pyridazin-6-yl)azetidin-1-yl)ethoxy)-4-(4-methylthiazol-5-yl)benzyl)pyrrolidine-2-carboxamide] | C (“C” indicates maximum degradation < 50%) | < 50 |  | 
9 | Cc1ncsc1-c1ccc([C@H](C)NC(=O)[C@@H]2C[C@@H](O)CN2C(=O)[C@@H](c2cc(OCCN(C)CCC(=O)N3CC(c4cc5cc(-c6ccccc6O)nnc5[nH]4)C3)no2)C(C)C)cc1 (racemic) [Compound 64, (2S,4R)-4-hydroxy-1-((R)-2-(3-(2-((3-(3-(3-(2-hydroxyphenyl)-7H-pyrrolo[2,3-c]pyridazin-6-yl)azetidin-1-yl)-3-oxopropyl)(methyl)amino)ethoxy)isoxazol-5-yl)-3-methylbutanoyl)-N-((S)-1-(4-(4-methylthiazol-5-yl)phenyl)ethyl)pyrrolidine-2-carboxamide] | B (“B” indicates maximum degradation ≥ 50%) | < 50 | > 100 | 
10 | Cc1ncsc1-c1ccc([C@H](C)NC(=O)[C@@H]2C[C@@H](O)CN2C(=O)[C@@H](c2cc(OCCNCCC(=O)N3CC(c4cc5cc(-c6ccccc6O)nnc5[nH]4)C3)no2)C(C)C)cc1 (racemic) [Compound 65, (2S,4R)-4-hydroxy-1-((R)-2-(3-(2-((3-(3-(3-(2-hydroxyphenyl)-7H-pyrrolo[2,3-c]pyridazin-6-yl)azetidin-1-yl)-3-oxopropyl)amino)ethoxy)isoxazol-5-yl)-3-methylbutanoyl)-N-((S)-1-(4-(4-methylthiazol-5-yl)phenyl)ethyl)pyrrolidine-2-carboxamide] | B (“B” indicates maximum degradation ≥ 50%) | < 50 | > 1000 | 
11 | Cc1ncsc1-c1ccc(CNC(=O)[C@@H]2C[C@@H](O)CN2C(=O)[C@@H](NC(=O)CCCCCCCNCCC(=O)N2CC(c3cc4cc(-c5ccccc5O)nnc4[nH]3)C2)C(C)(C)C)cc1 (racemic) [Compound 66, (2S,4R)-4-hydroxy-1-((S)-2-(8-((3-(3-(3-(2-hydroxyphenyl)-7H-pyrrolo[2,3-c]pyridazin-6-yl)azetidin-1-yl)-3-oxopropyl)amino)octanamido)-3,3-dimethylbutanoyl)-N-(4-(4-methylthiazol-5-yl)benzyl)pyrrolidine-2-carboxamide] | C (“C” indicates maximum degradation < 50%) | < 50 |  | 
12 | Cc1ncsc1-c1ccc([C@H](C)NC(=O)[C@@H]2C[C@@H](O)CN2C(=O)[C@@H](c2cc([C@H]3CC[C@H](c4cnc(N5CCC(c6c[nH]c7nnc(-c8ccccc8O)cc67)CC5)nc4)CC3)no2)C(C)C)cc1 (racemic) [Compound 67, (2S,4R)-4-hydroxy-N-[(1S)-1-[4-(4-methyl-1,3-thiazol-5-yl)phenyl]ethyl]-1-[(2R)-3-methyl-2-{3-[(1r,4r)-4-(2-{4-[3-(2-hydroxyphenyl)-7H-pyrrolo[2,3-c]pyridazin-5-yl]piperidin-1-yl}pyrimidin-5-yl)cyclohexyl]-1,2-oxazol-5-yl}butanoyl]pyrrolidine-2-carboxamide] | A (“A” indicates maximum degradation ≥ 75%) | > 75 | < 10 | > 10
